Earlier results in patent CN116041271A, “一种氟苯尼考中间体的制备方法” (Shandong Weiyan Biotechnology Co ltd, priority 2022, dated 2023).

Experiments:
Fusobacterium (梭杆菌) = conditions: in words; cattle
[1] = in words
[2] = in words; remark: listed apart in the source
[3] = administered in feed

Q: Which “therapeutic effect on bovine foot rot caused by Fusobacterium” value (Fusobacterium (梭杆菌)) does the source give for `CS(=O)(=O)c1ccc([C@@H](O)[C@@H](CF)NC(=O)C(Cl)Cl)cc1` [氟苯尼考] here?
A: The value was “有较好疗效”.

Q: And the control of disease [1]?
A: The control of disease was “能迅速控制病情”.

Q: What about the “potential risk of causing aplastic anemia” value [2] of the same compound?
A: Its value is “无潜在致再生障碍性贫血的隐患”.

Q: What about the residue [2] of the same compound?
A: The residue was “无残留”.

Q: And the safety [2]?
A: The safety was “安全性高”.

Q: And the toxicity [2]?
A: The toxicity was “无毒”.

Q: What about the “antibacterial effect relative to chloramphenicol and thiamphenicol” value (compared with chloramphenicol, thiamphenicol) of the same compound?
A: Its value is 15-20 times.

Q: And the antibacterial spectrum (in words)?
A: Its antibacterial spectrum is “广”.

Q: And the bacteriostatic action (in words)?
A: The bacteriostatic action was “强”.

Q: What about the “minimum inhibitory concentration (MIC)” value (in words) of the same compound?
A: The value was “低”.

Q: And the “time after administration to peak drug concentration in tissue” value [3]?
A: The value was 60 min.
